Values quoted from earlier work in paper PMC9998351 (Steroids, 2023).

System: CRPC CWR22Rv1 xenograft tumors
Details: CWR22Rv1 xenograft; 2 at 7.53-fold lower equimolar dose than Gal; p < 0.01; ref [26]; cited from earlier work

**Q.** Which “Suppression of tumor growth” value does the source give for `C[C@]12CC[C@H](O)CC1=CC[C@@H]1[C@@H]2CC[C@]2(C)C(n3cnc4ccccc43)=CC[C@@H]12` [Gal, Galeterone, reference compound] here?
**A.** The value was 47%.
